Experimental data reported in patent publication US20250059231A1, “Protease inhibitors” (priority 2021, published 2025).
Where a SMILES comes first, the peptide text is derived from it. The star is where a group is joined. Palmitoyl = CCCCCCCCCCCCCCCC(=O)*

Experiments:
[1] = target: T1, DENV protease (Dengue virus type 2, UniProt P29990); assay: biochemical; details: for inhibition at 50 µM: read-out: inhibition of DENV
T1 construct: The virus-encoded dengue protease comprises the amino-terminal 180 amino acids of NS3 (NS3pro) of the polyprotein
T1 sequence (P29990 1398-1437): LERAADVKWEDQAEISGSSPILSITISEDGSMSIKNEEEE
T1 sequence (P29990 1476-1653): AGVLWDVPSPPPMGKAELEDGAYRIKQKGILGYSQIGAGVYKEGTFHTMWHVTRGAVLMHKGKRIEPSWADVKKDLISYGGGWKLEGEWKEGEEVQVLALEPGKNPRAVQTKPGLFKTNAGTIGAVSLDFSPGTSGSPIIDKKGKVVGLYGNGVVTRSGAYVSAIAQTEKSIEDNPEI
How it was run: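 DENV protease (100 nM) was pre-incubated 15 min with inhibitors in 50 mM Tris-HCl pH 9.0, 10% ethylene glycol, 0.0016% Brij 58. FRET substrate (50 μM final) started the reaction, monitored 15 min as RFU/s slope. IC50 came from triplicate means versus concentration.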

[2] = test system: Dengue virus 2 (DENV2, ATCC VR-1584); assay: DENV2 infection in AG129 mice: viral load in plasma (plaque assay); type: in vivo; details: b.i.d
Procedure: The purpose of this study was to determine the efficacy of the compounds on Dengue virus 2 (DENV2, ATCC® VR-1584™) infection in AG129 mice.
Six groups of AG129 mice, 6-8 weeks old, with 9 mice per group were used to test compounds according to table 3.1.1. Animal room environment was monitored for temperature and relative humidity twice per day. The temperature range was 22° C.±3° C. and humidity range was 30-70%. The animals were provided with 12 hours light and 12 hours darkness. Feed and drinking water was provided ad libitum. Compounds 43 and 113 were tested.
Twenty-four hours post treatment (Day 0), animals were injected intraperitoneally (IP) with 0.2 ml of virus suspension (˜5×10^7/animal).
(§1) Administration of compounds and vehicle to animals started twenty four hours before infection (Day −1). Animals were treated daily (From Day-1 to day 4) as per the experimental design shown below in table 3.1.5. Animals were monitored for general clinical signs, morbidity and mortality. Body weights were measured daily.
Blood was collected on days-1, 0, 1, 2, 3, 4 to 5.
BHK-21 cells were cultured to approximately 80% confluency in 24-well plates (NUNC, NY, USA). Plasma samples were 10-fold serially diluted in RPMI 1640 (GIBCO). BHK-21 monolayers were infected with 100 μl of each virus dilution. After incubation at 37° C. and 5% CO2 atmosphere for one hour with rocking at 15 min intervals, the medium was decanted and 1 ml of 1% (w/v)carboxymethyl cellulose in RPMI supplemented with 2% FCS was added to each well. After four days incubation at 37° C. in 5% CO2, the cells were fixed with 4% paraformaldehyde and stained for 30 min with […] of 1% crystal violet dissolved in 37% formaldehyde. After thorough rinsing with water, plates were dried and the plaques were scored visually.
(§2) The Mean±SD Log10PFU/ml, relative Mean±SD spleen weight, Mean±SD biomarker concentrations were estimated in each group. Significant differences between group means and control were analyzed by one-way ANOVA, followed by a Dunnett's multiple comparison test, using GraphPad Prism 5 at 95% confidence levels. A p value of <0.05 was considered as significant.

[3] = test system: TNF alpha; assay: DENV2 infection in AG129 mice: plasma TNF alpha (ELISA); type: in vivo; details: 10 mg/kg I.P, b.i.d; n = 9; vs vehicle control
Procedure: as §1
Cytokine levels (TNF alpha, IL-6 and IL-12) in plasma samples were measured using Enzyme-Linked Immunosorbent Assay (ELISA). Mouse TNF alpha ELISA Kit (Abcam: ab208348), Mouse IL-6 ELISA Kit (Abcam: ab100712), and Mouse IL-12 p40+IL-12 p70 ELISA Kit (Abcam: ab100699) were used to estimate TNF alpha, IL-6 and IL-12, respectively. The assays were performed according to the manufacturer's instructions and was analysed on a TECAN-NanoQuant Plate™ system.
as §2

[4] = design: species or system mice; details: mouse, in vivo
Excerpt: FIG. 5A-multidose PK-profiles of compound 113 in mice after intravenous (IV), intraperitoneal (IP) and subcutaneous (SC) administration to mice (dosed twice per day for 5 days, mean of 3 mice per group).
FIG. 5D-multidose PK-profiles of compound 43 in mice after intravenous (IV), intraperitoneal (IP) and subcutaneous (SC) administration to mice (dosed twice per day for 5 days, mean of 3 mice per group).
Similar data was obtained with compound 43 (FIG. 5D)

[5] = target: T2, WNV protease (West Nile virus, UniProt P06935); assay: WNV protease assay (analogous procedure); type: biochemical; details: read-out: IC50 for WNNV
T2 construct: a trypsin-like serine protease domain in the N-terminal region of the flaviviral NS3 proteins
T2 sequence (P06935 1424-1463): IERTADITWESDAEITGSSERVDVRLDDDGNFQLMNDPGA
T2 sequence (P06935 1502-1679): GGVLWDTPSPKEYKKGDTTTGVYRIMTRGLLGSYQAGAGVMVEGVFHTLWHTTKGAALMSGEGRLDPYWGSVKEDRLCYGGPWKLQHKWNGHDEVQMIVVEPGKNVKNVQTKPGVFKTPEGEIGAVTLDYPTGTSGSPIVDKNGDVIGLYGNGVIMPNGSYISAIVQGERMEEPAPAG

In the case of `CCCCCCCCCCCCCCCC(=O)N[C@@H](CCCCN)CC(=O)N[C@@H](C)C(=O)N[C@@H](C)CC(=O)N[C@H](CCCCN)C(N)=O` (stereo in doubt) [compound 113], the inhibition at 50 µM [1] is reported as no less than 25%, the “inhibition of DENV protease (in words)” value ([1]; biochemical and cellular infection assays) is reported as “potent and specific inhibition” and the “Mean + SD Log10PFU/ml Plasma” value ([2]; Day 2, 10 mg/kg I.P) is reported as 3.79 ± 0.10 Log10PFU/ml. The “Mean + SD Log10PFU/ml Plasma” value ([2]; Day 2, 20 mg/kg I.P) was 3.07 ± 0.28 Log10PFU/ml, the “Mean + SD Log10PFU/ml Plasma” value ([2]; Day 4, 10 mg/kg I.P) was 4.65 ± 0.08 Log10PFU/ml and the “Mean + SD Log10PFU/ml Plasma” value ([2]; Day 5, 10 mg/kg I.P) was 3.66 ± 0.11 Log10PFU/ml. For the same molecule, the “Mean + SD Log10PFU/ml Plasma” value ([2]; Day 5, 20 mg/kg I.P) was 3.77 ± 0.11 Log10PFU/ml, the “Plasma concentration of TNF-alpha in mouse plasma after treatment” value [3] was 25.99 ± 9.19 and the pharmacokinetic profiles [4] was “reliable pharmacokinetic profiles with limited inter animal variability and dose proportionality”. For the same molecule, the “elimination in blood plasma” value ([4]; sc) was “slow elimination”, the “pharmacokinetic behaviour when administered subcutaneously” value ([4]; sc) was “improved pharmacokinetic behaviour” and the IC50 [5] was no more than 40 µM.

With `CCCCCCCCCCCCCCCC(=O)N[C@@H](CCCNC(=N)N)C(=O)N[C@@H](CCC(N)=O)C(=O)N[C@@H](Cc1ccccc1)C(N)=O` [compound 43] (Palmitoyl-Arg-Gln-Phe-NH2) the inhibition at 50 µM [1] was no less than 25%, the “Mean + SD Log10PFU/ml Plasma” value ([2]; Day 2, 10 mg/kg I.P) was 3.36 ± 0.41 Log10PFU/ml and the “Mean + SD Log10PFU/ml Plasma” value ([2]; Day 2, 20 mg/kg I.P) was 3.48 ± 0.25 Log10PFU/ml. For the same molecule, the “Mean + SD Log10PFU/ml Plasma” value ([2]; Day 5, 10 mg/kg I.P) was 3.28 ± 0.21 Log10PFU/ml, the “Mean + SD Log10PFU/ml Plasma” value ([2]; Day 5, 20 mg/kg I.P) was 3.06 ± 0.31 Log10PFU/ml and the “Plasma concentration of TNF-alpha in mouse plasma after treatment” value [3] was 32.45 ± 12.30. The “pharmacokinetic behaviour when administered subcutaneously” value ([4]; sc) was “improved pharmacokinetic behaviour” and the IC50 [5] was no more than 40 µM.
